By AC50 is commonly meant the midpoint of the concentration-response curve, whichever way the signal moves. By EC50 is commonly meant the concentration that produces a half-maximal response.

Activity calls are given as the source filed them.

One data set concerns the target Cytochrome P450 2D6 (Homo sapiens, UniProt P10635).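 Further: CYP2D6 member of a cytochrome P450 panel assay.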
The target in the next data set is T1, Cytochrome P450 1A2 (Homo sapiens, UniProt P05177).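 Further: PubChem cytochrome P450 panel assay, CYP1A2 panel member.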
T1 sequence (P05177 whole entry): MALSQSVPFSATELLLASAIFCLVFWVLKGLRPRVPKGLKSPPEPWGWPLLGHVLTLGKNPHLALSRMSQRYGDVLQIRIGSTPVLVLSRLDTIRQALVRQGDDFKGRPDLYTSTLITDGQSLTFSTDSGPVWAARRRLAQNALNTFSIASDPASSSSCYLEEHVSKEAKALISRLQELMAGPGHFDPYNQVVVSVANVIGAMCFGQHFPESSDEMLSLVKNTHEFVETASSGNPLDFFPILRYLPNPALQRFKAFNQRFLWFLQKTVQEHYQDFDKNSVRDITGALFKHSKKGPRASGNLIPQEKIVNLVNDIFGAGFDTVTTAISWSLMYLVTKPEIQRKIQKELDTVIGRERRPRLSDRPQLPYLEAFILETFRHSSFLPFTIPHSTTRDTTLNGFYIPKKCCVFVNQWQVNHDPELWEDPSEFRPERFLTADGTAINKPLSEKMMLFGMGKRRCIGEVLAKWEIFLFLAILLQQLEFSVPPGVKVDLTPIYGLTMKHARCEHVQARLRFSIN

A further data set concerns the target Cytochrome P450 2C19 (Homo sapiens, UniProt P33261). Nature of the data set: Cytochrome panel assay with activity outcomes. Panel member name: p450-cyp2c19 Compounds with AC50 equal or less than 10 uM are considered active. The class given is functional.
For data set [1], the system named is BJ. Nature of the data set: cytotoxicity toward Ras-transformed BJeLR fibroblasts, dose response, cell-based, alamar blue fluorescence, cherrypicked samples (AID 2631).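 Further: confirmatory dose-response assay in RAS-dependent BJ fibroblasts engineered with TERT, LT and ST, with cytotoxicity read by fluorescence.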 Format: functional. As to conditions: Homo sapiens. On the technique in general: Resazurin is reduced to fluorescent resorufin, in cell work by metabolically active cells.
Data set [2] concerns BJ. Nature of the data set: cells. Format: functional, cell-based. Conditions: Homo sapiens.
Data set [3] is described as follows: Luminescence Cell-Based Dose Response HTS to Identify Inhibitors of 5'UTR Stem-Loop Driven Prion Protein mRNA Translation in H4 Neuroglioblastoma Cells. [Related pubchem assays: 1827 (Project Summary), 1813 (Primary HTS)]. The class given is functional.
The nature of data set [4]: cytotoxicity toward DRD oncogenic fibroblasts, dose response, cell-based, non-viral oncogenic, luminescence (AID 1934). Format: functional. As to conditions: Homo sapiens.
The test system of data set [5] is BJ. Nature of the data set: cytotoxicity toward BJ-TERT fibroblasts, dose response, cell-based, RAS-independent, luminescence (AID 1933). Format: functional. Conditions: Homo sapiens.
The nature of data set [6]: inhibitors of SNCA 5'UTR-driven reporter translation, confirmation, H4 neuroglioma cells, luminescence (AID 1988). Format: functional, cell-based.
A short description of data set [7]: inhibitors of firefly luciferase expression or activity, dose response, H4 neuroglioma cells, luminescence (AID 1990). Format: functional, cell-based.
Data set [8] in a line: Luminescence Cell-Based Dose Retest to Confirm Inhibitors of Cancer Stem Cells. [Related pubchem assays (depositor defined):AID2717, AID2721]. The class given is functional. Conditions: Homo sapiens.
Data set [9] deals with BJ. Nature of the data set: cytotoxicity toward BJ-TERT-LT-ST fibroblasts, dose response, cell-based, RAS-independent, luminescence (AID 1935).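 Further: BJ fibroblasts immortalized with TERT plus LT and ST oncogenes.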 The class given is functional. As to conditions: Homo sapiens.
The target in another data set is Cytochrome P450 3A4 (Homo sapiens, UniProt P08684).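 Further: CYP3A4 tested as one member of a cytochrome P450 panel screen.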
Chain of Cytochrome P450 3A4 (P08684 whole entry): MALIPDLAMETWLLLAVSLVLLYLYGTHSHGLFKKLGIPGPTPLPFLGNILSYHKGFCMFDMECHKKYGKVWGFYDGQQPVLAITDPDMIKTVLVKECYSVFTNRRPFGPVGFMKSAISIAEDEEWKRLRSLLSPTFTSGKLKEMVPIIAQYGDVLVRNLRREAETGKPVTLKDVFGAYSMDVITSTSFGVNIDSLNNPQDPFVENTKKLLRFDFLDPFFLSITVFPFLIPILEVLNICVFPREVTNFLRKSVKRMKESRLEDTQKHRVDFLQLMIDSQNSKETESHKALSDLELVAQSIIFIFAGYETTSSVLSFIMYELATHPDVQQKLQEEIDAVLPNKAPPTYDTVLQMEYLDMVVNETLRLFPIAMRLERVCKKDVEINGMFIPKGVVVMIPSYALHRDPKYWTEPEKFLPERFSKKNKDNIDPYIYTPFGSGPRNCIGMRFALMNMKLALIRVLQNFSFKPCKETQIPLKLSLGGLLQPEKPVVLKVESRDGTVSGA
Data set [10] deals with T2, Cytochrome P450 2C9 (Homo sapiens, UniProt P11712).
T2 sequence (P11712 whole entry): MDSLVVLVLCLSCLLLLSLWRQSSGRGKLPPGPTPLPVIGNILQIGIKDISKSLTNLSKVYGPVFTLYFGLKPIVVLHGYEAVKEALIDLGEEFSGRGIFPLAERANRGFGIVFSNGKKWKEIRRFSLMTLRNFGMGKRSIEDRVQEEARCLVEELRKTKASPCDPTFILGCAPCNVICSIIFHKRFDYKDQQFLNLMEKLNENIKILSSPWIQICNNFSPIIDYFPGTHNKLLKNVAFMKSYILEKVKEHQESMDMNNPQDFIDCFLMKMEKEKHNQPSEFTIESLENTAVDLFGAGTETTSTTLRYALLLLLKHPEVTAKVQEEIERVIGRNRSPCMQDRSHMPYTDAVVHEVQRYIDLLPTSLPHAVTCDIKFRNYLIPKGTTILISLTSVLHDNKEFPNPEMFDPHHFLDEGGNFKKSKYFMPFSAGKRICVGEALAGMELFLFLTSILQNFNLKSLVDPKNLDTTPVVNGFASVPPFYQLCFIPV
The target of data set [11] is T2, Cytochrome P450 2C9. The source holds these as a separate data set.
The nature of data set [12]: control 3'UTR Renilla luciferase suppression, dose response, counter-screen for Shn3 inhibitor project, cell-based, Clone20-Shn3RL, cherry-picked (AID 624133). Format: functional. On the technique in general: The purpose of a counterscreen is to sort out artefacts and off-target activity.
The target in another data set is Protein Wnt-3a (Mus musculus, UniProt P27467). Nature of the data set: Wnt3a-driven reporter signaling inhibition, dose response, selectivity assay for Gli-SUFU antagonist project, Wnt-LIGHT cells, luminescence (AID 651570).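 Further: Wnt-LIGHT reporter cells stimulated with conditioned medium from Wnt3a-producing cells.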 The class given is functional. As to conditions: read-out: IC50_Mean.
Chain of Protein Wnt-3a (P27467 whole entry): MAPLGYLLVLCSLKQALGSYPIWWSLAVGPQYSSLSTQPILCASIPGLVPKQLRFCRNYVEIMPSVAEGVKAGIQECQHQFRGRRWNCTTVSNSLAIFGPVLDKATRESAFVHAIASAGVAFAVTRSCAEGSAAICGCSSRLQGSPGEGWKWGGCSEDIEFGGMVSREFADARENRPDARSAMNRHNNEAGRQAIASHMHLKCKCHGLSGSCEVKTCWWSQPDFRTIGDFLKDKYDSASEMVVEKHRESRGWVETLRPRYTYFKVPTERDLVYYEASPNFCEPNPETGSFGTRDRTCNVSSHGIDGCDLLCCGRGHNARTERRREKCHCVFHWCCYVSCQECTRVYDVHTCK
Data set [13] is described as follows: Shn3 3'UTR reporter inhibitors, dose response, cell-based, Clone20 osteoblasts, firefly luciferase, cherry-picked (AID 624132).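 Further: firefly luciferase luminescence from reporter carrying the Shn3 3'UTR in osteoblasts.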 The class given is functional.
A short description of data set [14]: growth suppression of beta-catenin-knockout colon cells, dose response, cell-based, HCT116, human colon tumor (AID 1045).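 Further: HCT116 colon tumor cells with beta catenin knocked out; cells exposed to compound for 60 hours.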 The class given is functional.
A further data set deals with INS1. Nature of the data set: beta cell apoptosis inhibitors, cytokine rescue, dose response, luminescence, retest (AID 449756).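 Further: cell death triggered by IL-1 beta plus TNF-alpha plus IFN-gamma mixture; protective hits raise ATP signal compared with cytokine alone wells.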 Format: functional, cell-based. As to conditions: Rattus norvegicus.
A short description of data set [15]: microbe, parasite or virus in culture. The class given is functional. As to conditions: Mycobacterium tuberculosis.
The nature of data set [16]: growth suppression of PTEN-null colon cells, dose response, cell-based, HCT116 PTEN knockout (AID 1047).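 Further: HCT116 colon tumor cells with PTEN knocked out; cells exposed to compound for 60 hours before readout; potency for loss of cell viability measured by luminescence.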 The class given is functional.
Data set [17] in a line: cytotoxicity in HEK-293T cells, dose response, cytotoxicity control for BCR NF-kB inhibitor project, luminescence, B-cell screen hits (AID 489021).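 Further: HEK-293T cells carrying an NF-kB luciferase reporter; cells exposed to compound for about 14 hours before viability readout.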 The class given is functional, cell-based.
The next data set addresses Paired box protein Pax-8 (Homo sapiens, UniProt Q06710). Nature of the data set: inhibitors of PAX8-driven TPO luciferase reporter, dose response, RMG-I cells, cherry-pick (AID 687027).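 Further: luciferase reporter driven by Pax8 target thyroperoxidase promoter measured by SteadyGlo luminescence.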 The class given is functional, cell-based.
The nature of data set [18]: intracellular Trypanosoma cruzi inhibitors in host cells – cell-based, plate reader, cherry-pick samples, set 3, dose response (AID 651818).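 Further: compounds incubated with infected cells for about four days.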 The class given is functional.

Chain of Cytochrome P450 2C19 (P33261 whole entry): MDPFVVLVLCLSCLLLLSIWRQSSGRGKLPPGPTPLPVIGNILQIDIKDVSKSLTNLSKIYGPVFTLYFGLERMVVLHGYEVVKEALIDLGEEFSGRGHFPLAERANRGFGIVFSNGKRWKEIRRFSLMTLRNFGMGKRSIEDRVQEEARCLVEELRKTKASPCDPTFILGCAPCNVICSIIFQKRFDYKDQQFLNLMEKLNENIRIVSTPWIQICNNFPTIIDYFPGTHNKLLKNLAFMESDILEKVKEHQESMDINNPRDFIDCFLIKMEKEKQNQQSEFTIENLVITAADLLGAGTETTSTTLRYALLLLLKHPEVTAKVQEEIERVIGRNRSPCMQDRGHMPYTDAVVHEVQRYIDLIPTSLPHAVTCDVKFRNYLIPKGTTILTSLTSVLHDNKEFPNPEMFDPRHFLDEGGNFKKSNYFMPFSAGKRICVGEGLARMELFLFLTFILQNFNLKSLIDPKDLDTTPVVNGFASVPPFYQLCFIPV
Chain of Cytochrome P450 2D6 (P10635 whole entry): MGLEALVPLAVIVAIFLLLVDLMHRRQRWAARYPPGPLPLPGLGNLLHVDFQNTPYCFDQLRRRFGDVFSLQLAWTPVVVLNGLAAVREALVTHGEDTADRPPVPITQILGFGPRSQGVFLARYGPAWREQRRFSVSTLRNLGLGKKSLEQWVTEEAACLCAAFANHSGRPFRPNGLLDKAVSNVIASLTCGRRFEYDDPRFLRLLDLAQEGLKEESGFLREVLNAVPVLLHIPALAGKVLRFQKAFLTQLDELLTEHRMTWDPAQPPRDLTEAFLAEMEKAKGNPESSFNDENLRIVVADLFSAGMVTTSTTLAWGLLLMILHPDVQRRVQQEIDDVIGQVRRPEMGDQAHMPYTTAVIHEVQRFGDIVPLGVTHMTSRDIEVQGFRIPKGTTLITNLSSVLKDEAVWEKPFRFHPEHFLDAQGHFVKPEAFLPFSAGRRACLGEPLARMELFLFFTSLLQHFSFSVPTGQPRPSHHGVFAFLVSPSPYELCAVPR
Chain of Paired box protein Pax-8 (Q06710 whole entry): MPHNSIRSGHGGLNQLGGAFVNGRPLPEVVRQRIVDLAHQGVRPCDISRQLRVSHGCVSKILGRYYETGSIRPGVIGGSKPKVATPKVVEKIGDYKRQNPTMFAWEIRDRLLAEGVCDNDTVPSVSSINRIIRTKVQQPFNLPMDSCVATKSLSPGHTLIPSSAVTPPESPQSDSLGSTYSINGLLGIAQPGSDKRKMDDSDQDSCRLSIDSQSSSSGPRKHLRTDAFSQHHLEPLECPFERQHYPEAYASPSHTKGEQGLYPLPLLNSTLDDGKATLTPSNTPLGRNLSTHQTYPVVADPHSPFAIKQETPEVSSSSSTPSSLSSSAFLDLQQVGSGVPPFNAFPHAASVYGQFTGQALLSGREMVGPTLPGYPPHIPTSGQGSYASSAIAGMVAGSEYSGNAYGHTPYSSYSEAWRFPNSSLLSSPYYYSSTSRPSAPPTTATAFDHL

Turning to `Cc1cc(C)nc(Nc2n[nH]c(COc3ccc4ccccc4c3)n2)n1`, the AC50 entry was “inconclusive” at Cytochrome P450 2D6, 1.12 µM (inconclusive) on Cytochrome P450 1A2 and 17.8 µM (inconclusive) on Cytochrome P450 2C19 (read-out: AC50).
Regarding `O=Cc1cc2ccccc2nc1SCc1ccc(Cl)cc1`, the concentration for a half-maximal effect (EC50) is 0.134 µM (active) in the data set on BJ [1]; 0.699 µM (active) in the data set with BJ [2]; 0.745 µM (active) in [3]; 1.1 µM (active) in data set [4]; 0.635 µM (active) in the data set with BJ [5]; 0.724 µM (active) in [6]. Also, the values for the EC50 (in [7]; in the data set on BJ [9]) were 9.87 µM (active) and 0.434 µM (active), respectively. Also, the AC50 in data set [8] was 3.66 µM (active).
On to `CCOC(=O)C(Sc1ncnc2c1sc1nc(N3CCOCC3)c3c(c12)CCCC3)c1ccccc1` (configuration not stated), for which the AC50 result at Cytochrome P450 3A4 is “inconclusive”; at Cytochrome P450 2C9 [10], 0.316 µM (inconclusive); on Cytochrome P450 2C19 (read-out: AC50), 10 µM (inconclusive).
Regarding `CS(=O)(=O)N1CCC2(CCN(C(c3ccccc3)c3ccccc3)CC2)CC1`, the AC50 entry at Cytochrome P450 3A4 is given as “inconclusive”.
Consider `COc1ccccc1CN1CC2(CCN(S(=O)(=O)c3ccccc3)CC2)C1`, for which the AC50 entry on Cytochrome P450 2C9 [11], on Cytochrome P450 2D6 and on Cytochrome P450 2C19 was “inconclusive” throughout.
Consider `Cn1cccc1C(=O)N1CCC2(CC1)CCN(c1ccc(-c3ccccc3)cc1)CC2`, for which the AC50 result on Cytochrome P450 3A4 is “inconclusive”; on Cytochrome P450 1A2, 20 µM (inconclusive).
In the case of `Cc1nn(Cc2noc(C(=O)NC3CCC(C)CC3)n2)c(C)c1Br` (configuration not stated), the AC50 in data set [12] was 6.78 µM (active); in data set [13], 3.28 µM (active). For the same compound, at Protein Wnt-3a, the IC50 is 4.35 µM (active).
On to `CN1CCN(c2ncc3nc(-c4ccc(F)cc4)c(=O)n(C4CC4)c3n2)CC1`, for which the AC50 result at Cytochrome P450 3A4 is “inconclusive”; on Cytochrome P450 2C19 (read-out: AC50), 25.1 µM (inconclusive).
Take `CCc1ccc(-c2nn(-c3ccccc3)cc2CSC(=N)N)cc1`: the results for the EC50 (in the data set on BJ [1]; in [14]; in [16]) were > 133 µM (inactive), 11.2 µM (active) and 9.61 µM (active), respectively. Also, the AC50 in the data set on INS1 was 8.15 µM (active). Further, the CC50 in data set [15] is 13.7 µM (active).
In the case of `CCN(CC(=O)Nc1c(F)cccc1F)C(=O)c1cc(S(=O)(=O)N(CC)CC)ccc1N1CCCCC1`, the results for the IC50 (in data set [17]; on Protein Wnt-3a) were > 80 µM (inactive) and 11.4 µM (active), respectively. On Paired box protein Pax-8, the AC50 was 3.02 µM (active).
For the compound `CC1Cc2cc(S(=O)(=O)N3CCC(C(=O)N4CCN(c5ccccc5F)CC4)CC3)ccc2N1C(=O)C1CC1` (configuration not stated), the AC50 in the data set on INS1 is 5.34 µM (active); in [12] it was 4.74 µM (active); in data set [13] it was 1.65 µM (active). Further, the IC50 on Protein Wnt-3a was 5.83 µM (active).
`C[C@@H]1CN([C@H](C)CO)C(=O)c2cccc(NC(=O)Nc3ccc(C(F)(F)F)cc3)c2O[C@@H]1CN(C)S(=O)(=O)c1ccc(Cl)cc1`: the half-maximal activity concentration (AC50) in data set [18] was 3.52 µM (active).
The same measure, in the same setting: in the case of `Cc1ccc(S(=O)(=O)Nc2cccc3c2O[C@@H](CN(C)Cc2ccc(C(=O)Nc4ccccc4N)cc2)[C@H](C)CN([C@H](C)CO)C3=O)cc1` it was 3.87 µM (active).
Same read-out and setting: in the case of `C[C@H](CO)N1C[C@H](C)[C@H](CN(C)Cc2ccc(Cl)c(Cl)c2)Oc2ccc(NC(=O)Nc3ccc(C(F)(F)F)cc3)cc2C1=O` it was 3.24 µM (active); in that of `COc1ccc(NC(=O)Nc2ccc3c(c2)CC(=O)N([C@H](C)CO)C[C@@H](C)[C@@H](CN(C)Cc2ccc(Cl)c(Cl)c2)O3)cc1`, 3.35 µM (active).
